Reference: PMC10104807, “Modulation of tau tubulin kinases (TTBK1 and TTBK2) impacts ciliogenesis” (Scientific Reports, 2023)

How the values were obtained:
TTBK1 kinase domain = biological target: T1, TTBK1 kinase domain (Homo sapiens, UniProt Q5TCY1); experiment: Thermal shift assay; type: binding; details: kinase domain 2 µM, inhibitor 10 µM
T1 construct: Either the TTBK1 or TTBK2 kinase domain at 2 µM
Protocol: A Real-Time PCR Mx3005p machine (Stratagene) was used to measure the fluorescence spectrum. The Tm shift assays and data evaluation for melting temperatures were performed according to the previously described protocol.

CDK11 = biological target: T2, CDK11 (Homo sapiens, UniProt Q9BWU1); experiment: DiscoverX scanMAX binding assay; details: 1 μM
T2 construct: purchased Eurofins (radiometric) / Eurofins DiscoverX scanMAX / Reaction Biology / SignalChem
Procedure, shortened: (§1)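 Readout: PoC. Format: binding assay, one concentration (1 µM). Panel: 403 wild-type human kinases.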

CDK8 = biological target: T3, CDK8 (Homo sapiens, UniProt P49336); experiment: DiscoverX scanMAX binding assay; details: 1 μM
T3 construct: purchased Eurofins (radiometric) / Eurofins DiscoverX scanMAX / Reaction Biology / SignalChem
Procedure, shortened: as §1

CHEK2 = biological target: T4, CHEK2 (Homo sapiens, UniProt O96017); experiment: DiscoverX scanMAX binding assay; details: 1 μM
T4 construct: purchased Eurofins (radiometric) / Eurofins DiscoverX scanMAX / Reaction Biology / SignalChem
Procedure, shortened: as §1

CSNK1E = biological target: T5, CSNK1E (Homo sapiens, UniProt P49674); experiment: DiscoverX scanMAX binding assay; details: 1 μM
T5 construct: purchased Eurofins (radiometric) / Eurofins DiscoverX scanMAX / Reaction Biology / SignalChem
Procedure, shortened: as §1

HASPIN = biological target: T6, HASPIN (Homo sapiens, UniProt Q8TF76); experiment: DiscoverX scanMAX binding assay; details: 1 μM
T6 construct: purchased Eurofins (radiometric) / Eurofins DiscoverX scanMAX / Reaction Biology / SignalChem
Procedure, shortened: as §1

[1] = Kinetic solubility (Analiza); type: physicochemical; details: PBS pH 7.4, from 10 mM DMSO stocks
Description: Calculated solubility values in Table 2 have been corrected for background nitrogen present in the DMSO and media.

AURKB = biological target: T7, AURKB (Homo sapiens, UniProt Q96GD4); experiment: DiscoverX scanMAX binding assay; details: 1 μM
T7 construct: purchased Eurofins (radiometric) / Eurofins DiscoverX scanMAX / Reaction Biology / SignalChem
Procedure, shortened: as §1

BRAF(V600E) = biological target: T8, BRAF(V600E) (Homo sapiens, UniProt P15056, V600E); experiment: DiscoverX scanMAX binding assay; details: 1 μM
T8 construct: purchased Eurofins (radiometric) / Eurofins DiscoverX scanMAX / Reaction Biology / SignalChem

CDC2L1 = biological target: T9, CDC2L1 (Homo sapiens, UniProt P21127); experiment: DiscoverX scanMAX binding assay; details: 1 μM
T9 construct: purchased Eurofins (radiometric) / Eurofins DiscoverX scanMAX / Reaction Biology / SignalChem
Procedure, shortened: as §1

CDC2L2 = biological target: T10, CDC2L2 (Homo sapiens, UniProt Q9UQ88); experiment: DiscoverX scanMAX binding assay; details: 1 μM
T10 construct: purchased Eurofins (radiometric) / Eurofins DiscoverX scanMAX / Reaction Biology / SignalChem
Procedure, shortened: as §1

GRK2 = biological target: T11, GRK2 (Homo sapiens, UniProt P25098); experiment: DiscoverX scanMAX binding assay; details: 1 μM
T11 construct: purchased Eurofins (radiometric) / Eurofins DiscoverX scanMAX / Reaction Biology / SignalChem
Procedure, shortened: as §1

HIPK1 = biological target: T12, HIPK1 (Homo sapiens, UniProt Q86Z02); experiment: DiscoverX scanMAX binding assay; details: 1 μM
T12 construct: purchased Eurofins (radiometric) / Eurofins DiscoverX scanMAX / Reaction Biology / SignalChem
Procedure, shortened: as §1

[2] = biological target: T13, JAK2(JH1domain-catalytic) (Homo sapiens, UniProt O60674); experiment: DiscoverX scanMAX binding assay
T13 construct: JAK2(JH1domain-catalytic); purchased Eurofins (radiometric) / Eurofins DiscoverX scanMAX / Reaction Biology / SignalChem
Procedure, shortened: as §1

[3] = biological target: T14, JAK3(JH1domain-catalytic) (Homo sapiens, UniProt P52333); experiment: DiscoverX scanMAX binding assay; details: 1 μM
T14 construct: JAK3(JH1domain-catalytic); purchased Eurofins (radiometric) / Eurofins DiscoverX scanMAX / Reaction Biology / SignalChem
Procedure, shortened: as §1

NIK = biological target: T15, NIK (Homo sapiens, UniProt Q99558); experiment: DiscoverX scanMAX binding assay; details: 1 μM
T15 construct: purchased Eurofins (radiometric) / Eurofins DiscoverX scanMAX / Reaction Biology / SignalChem
Procedure, shortened: as §1

PFCDPK1(P.falciparum) = biological target: T16, PFCDPK1(P.falciparum) (Plasmodium falciparum, UniProt P62344); experiment: DiscoverX scanMAX binding assay; details: 1 μM
T16 construct: purchased Eurofins (radiometric) / Eurofins DiscoverX scanMAX / Reaction Biology / SignalChem
Procedure, shortened: as §1

PRKD2 = biological target: T17, PRKD2 (Homo sapiens, UniProt Q9BZL6); experiment: DiscoverX scanMAX binding assay; details: 1 μM
T17 construct: purchased Eurofins (radiometric) / Eurofins DiscoverX scanMAX / Reaction Biology / SignalChem
Procedure, shortened: as §1

PRKD3 = biological target: T18, PRKD3 (Homo sapiens, UniProt O94806); experiment: DiscoverX scanMAX binding assay; details: 1 μM
T18 construct: purchased Eurofins (radiometric) / Eurofins DiscoverX scanMAX / Reaction Biology / SignalChem
Procedure, shortened: as §1

[4] = biological target: T19, RPS6KA5(Kin.Dom.2-C-terminal) (Homo sapiens, UniProt O75582); experiment: DiscoverX scanMAX binding assay; details: 1 μM
T19 construct: RPS6KA5(Kin.Dom.2-C-terminal); purchased Eurofins (radiometric) / Eurofins DiscoverX scanMAX / Reaction Biology / SignalChem
Procedure, shortened: as §1

SNARK = biological target: T20, SNARK (Homo sapiens, UniProt Q9H093); experiment: DiscoverX scanMAX binding assay; details: 1 μM
T20 construct: purchased Eurofins (radiometric) / Eurofins DiscoverX scanMAX / Reaction Biology / SignalChem
Procedure, shortened: as §1

TSSK3 = biological target: T21, TSSK3 (Homo sapiens, UniProt Q96PN8); experiment: DiscoverX scanMAX binding assay; details: 1 μM
T21 construct: purchased Eurofins
T21 sequence (Q96PN8 1-268): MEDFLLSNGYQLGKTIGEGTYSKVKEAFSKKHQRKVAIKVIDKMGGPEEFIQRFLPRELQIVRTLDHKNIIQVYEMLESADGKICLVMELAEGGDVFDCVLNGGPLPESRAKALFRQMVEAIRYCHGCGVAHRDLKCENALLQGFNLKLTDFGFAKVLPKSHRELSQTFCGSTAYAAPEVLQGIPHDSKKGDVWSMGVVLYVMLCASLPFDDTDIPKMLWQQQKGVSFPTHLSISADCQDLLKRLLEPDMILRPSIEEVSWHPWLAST
Procedure, shortened: as §1

[5] = biological target: T22, TYK2(JH1domain-catalytic) (Homo sapiens, UniProt P29597); experiment: DiscoverX scanMAX binding assay; details: 1 μM
T22 construct: TYK2(JH1domain-catalytic); purchased Eurofins (radiometric) / Eurofins DiscoverX scanMAX / Reaction Biology / SignalChem
Procedure, shortened: as §1

MAP4K5 = biological target: T23, MAP4K5 (Homo sapiens, UniProt Q9Y4K4); experiment: DiscoverX scanMAX binding assay; details: 1 μM
T23 construct: purchased Eurofins
Procedure, shortened: as §1

RIPK5 = biological target: T24, RIPK5 (Homo sapiens, UniProt Q6XUX3); experiment: DiscoverX scanMAX binding assay; details: 1 μM
T24 construct: purchased Eurofins (radiometric) / Eurofins DiscoverX scanMAX / Reaction Biology / SignalChem
Procedure, shortened: as §1

TTBK1 [6] = system: TTBK1; design: method as in earlier work; details: screened at 1 μM; cited from earlier work
TTBK2 = system: TTBK2; design: method as in earlier work; details: screened at 1 μM; cited from earlier work
TTBK1 [7] = system: TTBK1; design: method as in PMID 33944571; details: read-out: TTBK1 IC50 (Biogen biochemical assay); cited from earlier work

T1 sequence (Q5TCY1 13-320): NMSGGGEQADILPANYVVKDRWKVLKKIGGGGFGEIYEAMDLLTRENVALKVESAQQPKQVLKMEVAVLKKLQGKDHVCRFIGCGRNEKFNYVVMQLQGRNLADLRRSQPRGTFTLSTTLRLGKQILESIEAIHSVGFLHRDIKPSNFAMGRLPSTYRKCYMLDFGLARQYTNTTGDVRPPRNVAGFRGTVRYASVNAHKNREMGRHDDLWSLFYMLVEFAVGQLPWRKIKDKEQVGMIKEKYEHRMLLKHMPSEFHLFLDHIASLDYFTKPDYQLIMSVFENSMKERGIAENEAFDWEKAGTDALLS
T13 sequence (O60674 849-1124 limits assumed): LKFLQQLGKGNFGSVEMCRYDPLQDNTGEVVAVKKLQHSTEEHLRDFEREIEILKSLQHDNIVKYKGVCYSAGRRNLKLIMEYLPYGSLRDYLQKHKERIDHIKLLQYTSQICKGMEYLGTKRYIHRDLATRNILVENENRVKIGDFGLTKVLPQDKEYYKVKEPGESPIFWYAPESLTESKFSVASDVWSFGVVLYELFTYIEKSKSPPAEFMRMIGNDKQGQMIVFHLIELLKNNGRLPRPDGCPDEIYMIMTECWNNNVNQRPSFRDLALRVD
T24 sequence (Q6XUX3 whole entry): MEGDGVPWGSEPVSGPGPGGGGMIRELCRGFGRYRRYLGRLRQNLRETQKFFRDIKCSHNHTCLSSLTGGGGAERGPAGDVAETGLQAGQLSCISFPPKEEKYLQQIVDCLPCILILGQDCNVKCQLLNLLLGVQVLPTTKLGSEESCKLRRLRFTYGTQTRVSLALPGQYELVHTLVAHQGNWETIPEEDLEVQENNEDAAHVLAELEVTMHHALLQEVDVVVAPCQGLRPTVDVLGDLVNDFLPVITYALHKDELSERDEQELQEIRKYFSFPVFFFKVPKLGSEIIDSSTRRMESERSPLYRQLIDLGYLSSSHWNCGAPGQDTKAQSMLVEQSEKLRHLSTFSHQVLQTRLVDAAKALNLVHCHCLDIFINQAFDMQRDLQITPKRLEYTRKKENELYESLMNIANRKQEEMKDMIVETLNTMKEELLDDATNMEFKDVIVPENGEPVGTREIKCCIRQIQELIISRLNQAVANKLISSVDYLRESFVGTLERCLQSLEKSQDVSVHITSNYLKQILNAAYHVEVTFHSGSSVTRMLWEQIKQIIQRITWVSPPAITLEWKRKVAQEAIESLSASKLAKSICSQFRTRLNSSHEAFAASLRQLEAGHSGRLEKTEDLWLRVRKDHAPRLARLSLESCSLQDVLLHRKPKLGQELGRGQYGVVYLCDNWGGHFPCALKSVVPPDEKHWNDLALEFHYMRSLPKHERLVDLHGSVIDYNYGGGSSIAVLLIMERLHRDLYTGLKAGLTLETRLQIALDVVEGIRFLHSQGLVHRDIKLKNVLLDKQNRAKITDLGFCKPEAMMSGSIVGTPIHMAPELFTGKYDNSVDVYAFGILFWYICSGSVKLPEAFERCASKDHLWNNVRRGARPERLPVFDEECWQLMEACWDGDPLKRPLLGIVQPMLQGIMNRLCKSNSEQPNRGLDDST
T11 sequence (P25098 whole entry): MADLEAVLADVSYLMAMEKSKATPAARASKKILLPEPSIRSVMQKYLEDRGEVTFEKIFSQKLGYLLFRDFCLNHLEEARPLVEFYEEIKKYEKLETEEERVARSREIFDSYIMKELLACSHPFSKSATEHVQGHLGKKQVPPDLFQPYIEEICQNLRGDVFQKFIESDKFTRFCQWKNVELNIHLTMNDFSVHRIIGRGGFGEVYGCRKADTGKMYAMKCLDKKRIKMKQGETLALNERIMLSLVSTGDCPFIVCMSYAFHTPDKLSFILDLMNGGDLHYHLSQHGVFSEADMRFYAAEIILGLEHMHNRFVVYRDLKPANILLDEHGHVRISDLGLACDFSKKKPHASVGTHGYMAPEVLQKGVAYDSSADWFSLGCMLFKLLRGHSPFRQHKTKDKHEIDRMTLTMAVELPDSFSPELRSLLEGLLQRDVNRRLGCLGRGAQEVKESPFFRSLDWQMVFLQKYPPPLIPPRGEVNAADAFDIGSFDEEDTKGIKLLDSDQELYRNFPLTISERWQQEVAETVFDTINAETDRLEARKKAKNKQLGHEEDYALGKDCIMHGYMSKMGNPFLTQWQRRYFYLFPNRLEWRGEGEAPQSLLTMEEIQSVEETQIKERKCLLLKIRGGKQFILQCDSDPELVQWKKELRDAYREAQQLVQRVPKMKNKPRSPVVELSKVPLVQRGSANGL
T12 sequence (Q86Z02 whole entry): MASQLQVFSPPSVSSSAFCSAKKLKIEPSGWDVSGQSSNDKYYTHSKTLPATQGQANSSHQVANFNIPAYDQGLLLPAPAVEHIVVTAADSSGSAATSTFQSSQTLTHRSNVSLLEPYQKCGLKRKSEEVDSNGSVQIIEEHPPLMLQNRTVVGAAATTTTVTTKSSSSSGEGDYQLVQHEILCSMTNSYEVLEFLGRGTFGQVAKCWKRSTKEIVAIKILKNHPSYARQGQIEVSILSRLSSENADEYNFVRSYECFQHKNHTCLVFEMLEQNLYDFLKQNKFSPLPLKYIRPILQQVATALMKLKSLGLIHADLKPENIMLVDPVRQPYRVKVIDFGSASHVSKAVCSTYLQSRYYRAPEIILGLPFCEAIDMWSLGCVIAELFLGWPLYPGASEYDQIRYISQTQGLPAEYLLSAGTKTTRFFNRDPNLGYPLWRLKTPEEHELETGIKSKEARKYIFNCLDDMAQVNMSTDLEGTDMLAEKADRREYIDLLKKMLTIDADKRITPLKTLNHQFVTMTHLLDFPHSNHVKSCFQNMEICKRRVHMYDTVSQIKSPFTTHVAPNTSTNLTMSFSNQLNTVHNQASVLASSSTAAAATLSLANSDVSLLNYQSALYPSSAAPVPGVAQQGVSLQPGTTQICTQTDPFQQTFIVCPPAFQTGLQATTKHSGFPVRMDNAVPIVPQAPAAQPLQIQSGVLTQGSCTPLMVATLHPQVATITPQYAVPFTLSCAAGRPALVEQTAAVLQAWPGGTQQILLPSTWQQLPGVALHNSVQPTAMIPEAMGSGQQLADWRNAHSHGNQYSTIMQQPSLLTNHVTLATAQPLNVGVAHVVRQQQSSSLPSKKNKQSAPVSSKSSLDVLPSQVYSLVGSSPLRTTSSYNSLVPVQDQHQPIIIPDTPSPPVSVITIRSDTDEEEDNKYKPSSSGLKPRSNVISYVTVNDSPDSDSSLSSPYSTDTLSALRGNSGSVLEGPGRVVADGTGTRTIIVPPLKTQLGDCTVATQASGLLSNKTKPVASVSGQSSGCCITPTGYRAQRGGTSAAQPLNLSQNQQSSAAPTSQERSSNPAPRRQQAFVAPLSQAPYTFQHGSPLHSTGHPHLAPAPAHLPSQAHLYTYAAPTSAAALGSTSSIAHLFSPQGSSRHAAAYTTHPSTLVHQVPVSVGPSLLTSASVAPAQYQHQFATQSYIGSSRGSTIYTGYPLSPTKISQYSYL
T19 sequence (O75582 426-687 limits assumed): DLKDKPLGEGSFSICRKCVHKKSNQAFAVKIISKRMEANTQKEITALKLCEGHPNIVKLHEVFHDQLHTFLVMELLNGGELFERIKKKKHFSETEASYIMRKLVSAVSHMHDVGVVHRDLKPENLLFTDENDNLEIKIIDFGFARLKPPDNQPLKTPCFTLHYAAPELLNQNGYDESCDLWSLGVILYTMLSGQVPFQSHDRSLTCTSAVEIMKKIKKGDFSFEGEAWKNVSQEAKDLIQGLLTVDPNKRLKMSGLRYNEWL
T4 sequence (O96017 whole entry): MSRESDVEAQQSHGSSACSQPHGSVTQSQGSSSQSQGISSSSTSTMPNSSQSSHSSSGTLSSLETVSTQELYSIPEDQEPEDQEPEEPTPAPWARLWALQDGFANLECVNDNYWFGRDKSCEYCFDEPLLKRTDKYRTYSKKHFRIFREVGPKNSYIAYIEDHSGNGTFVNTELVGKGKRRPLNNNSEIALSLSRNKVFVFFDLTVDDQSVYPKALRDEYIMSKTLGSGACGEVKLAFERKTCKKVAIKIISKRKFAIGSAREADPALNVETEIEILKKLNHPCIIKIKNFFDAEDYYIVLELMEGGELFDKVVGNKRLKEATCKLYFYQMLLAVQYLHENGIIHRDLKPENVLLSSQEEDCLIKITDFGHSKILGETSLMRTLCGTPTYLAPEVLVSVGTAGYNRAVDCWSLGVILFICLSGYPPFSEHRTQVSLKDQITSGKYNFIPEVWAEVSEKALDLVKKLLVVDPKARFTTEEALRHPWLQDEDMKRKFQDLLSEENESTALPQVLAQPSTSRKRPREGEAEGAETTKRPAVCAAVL
T22 sequence (P29597 897-1176 limits assumed): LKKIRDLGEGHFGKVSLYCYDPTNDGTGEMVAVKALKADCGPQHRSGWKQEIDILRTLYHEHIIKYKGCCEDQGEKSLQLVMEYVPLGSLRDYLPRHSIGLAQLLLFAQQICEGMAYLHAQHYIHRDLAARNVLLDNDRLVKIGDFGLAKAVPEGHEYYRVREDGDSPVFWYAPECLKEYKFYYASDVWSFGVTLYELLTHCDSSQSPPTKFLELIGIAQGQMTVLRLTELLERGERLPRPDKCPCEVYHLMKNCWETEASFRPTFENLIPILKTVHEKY
T14 sequence (P52333 822-1111 limits assumed): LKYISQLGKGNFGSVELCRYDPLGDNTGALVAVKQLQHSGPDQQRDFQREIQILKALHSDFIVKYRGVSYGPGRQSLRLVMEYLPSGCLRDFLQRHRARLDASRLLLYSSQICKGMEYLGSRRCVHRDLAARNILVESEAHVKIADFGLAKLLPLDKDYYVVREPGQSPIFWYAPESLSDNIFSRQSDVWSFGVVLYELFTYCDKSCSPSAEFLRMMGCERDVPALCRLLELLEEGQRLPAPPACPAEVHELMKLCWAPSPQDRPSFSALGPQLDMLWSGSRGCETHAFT

## CC(C)(O)C#Cc1ccc2[nH]c3c(c2c1)-c1nc(N)ncc1CC3 [Compound 1]
TTBK1 kinase domain
  ΔTm TTBK1: 6.1 °C
CDK11
  CDK11 % control at 1000nM: 4.7 % control
CDK8
  CDK8 % control at 1000nM: 4.8 % control
CHEK2
  CHEK2 (CHK2) % control at 1000nM / DiscoverX PoC value: 7.9 % control
CSNK1E
  CSNK1E % control at 1000nM / DiscoverX PoC value: 6.2 % control
HASPIN
  HASPIN % control at 1000nM: 0.3 % control

## CC(C)(O)C#Cc1ccc2[nH]cc(-c3ccnc(N)n3)c2c1 [Compound 3]
TTBK1 kinase domain
  ΔTm TTBK1: 6.9 °C
[1]
  Kinetic solubility: 133 µM
AURKB
  AURKB % control at 1000nM: 3.7 % control
BRAF(V600E)
  BRAF(V600E) % control at 1000nM: 6.5 % control
CDC2L1
  CDC2L1 % control at 1000nM: 4.3 % control
CDC2L2
  CDC2L2 % control at 1000nM: 6.6 % control
GRK2
  GRK2 % control at 1000nM: 9.1 % control
HIPK1
  HIPK1 % control at 1000nM: 9.4 % control
[2]; 1 μM
  JAK2(JH1domain-catalytic) % control at 1000nM: 0.5 % control
[3]
  JAK3(JH1domain-catalytic) % control at 1000nM: 1.8 % control
NIK
  NIK % control at 1000nM: 9.4 % control
PFCDPK1(P.falciparum)
  PFCDPK1(P.falciparum) % control at 1000nM: 7.8 % control
PRKD2
  PRKD2 % control at 1000nM: 8.3 % control
PRKD3
  PRKD3 (PKD3) % control at 1000nM / DiscoverX PoC value: 1.3 % control
[4]
  RPS6KA5(Kin.Dom.2-C-terminal) % control at 1000nM: 8.9 % control
SNARK
  SNARK % control at 1000nM: 1.7 % control
TSSK3
  TSSK3 % control at 1000nM / DiscoverX PoC value: 8.1 % control
[5]
  TYK2(JH1domain-catalytic) % control at 1000nM: 6.3 % control

## CC(C)(O)C#Cc1ccc2[nH]c3c(c2c1)-c1nc(N)ncc1CCC3 [AMG28, reference compound]
[2]; read-out: JAK2(JH1domain-catalytic) % control at 1000nM
  percent of control (binding) at 1 µM: 6.9%
MAP4K5
  MAP4K5 % control at 1000nM / DiscoverX PoC value: 6.6 % control
RIPK5
  RIPK5 % control at 1000nM / DiscoverX PoC value: 2.2 % control
TTBK1 [6]
  TTBK1 activity remaining: 8%
TTBK2
  TTBK2 activity remaining: 12%
TTBK1 [7]
  IC50: […]
